As usually defined, the IC50 is the concentration that inhibits the measured activity by half. A higher IC50 goes with lower potency.

This assay deals with T1, hROMK (hKir1.1) (Homo sapiens, UniProt P48048).
T1 construct: expressed in transfected cells
T1 sequence (P48048 1-391): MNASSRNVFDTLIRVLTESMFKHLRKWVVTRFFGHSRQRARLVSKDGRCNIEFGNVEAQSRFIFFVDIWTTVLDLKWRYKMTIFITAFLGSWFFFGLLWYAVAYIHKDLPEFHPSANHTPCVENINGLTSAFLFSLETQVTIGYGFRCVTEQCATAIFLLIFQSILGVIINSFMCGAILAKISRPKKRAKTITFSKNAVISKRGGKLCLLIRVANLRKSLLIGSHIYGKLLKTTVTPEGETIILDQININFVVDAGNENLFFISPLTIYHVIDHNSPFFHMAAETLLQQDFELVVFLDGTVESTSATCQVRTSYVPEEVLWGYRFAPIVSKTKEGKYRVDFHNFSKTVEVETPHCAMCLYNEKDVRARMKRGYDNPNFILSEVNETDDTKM
Nature of the assay: Thallium Flux Assay (ROMK channel functional thallium flux, FLIPR-Tetra). Format: cell-based. The settings on record: HEK293 cells stably expressing hROMK (hKir1.1); 30 min compound incubation. The essentials: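 Thallium flux read by FluxOR fluorescence ([…]) for ~10 min after adding 3 mM Tl+/0.3 mM K+ final. Stable HEK-hKir1.1 cells were dye-loaded 90 min, exposed to compound 30 min at room temperature in ouabain/probenecid buffer; IC50 relative to a 3 μM control inhibitor.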

Compound `O=C1C=C(N2C=CC3(CCN(CCc4ccc(-n5cnnn5)nn4)CC3)C2=O)CO1` [Example 249, 1-oxo-2-(5-oxo-2,5-dihydrofuran-3-yl)-8-{2-[6-(1H-tetrazol-1-yl)pyridazin-3-yl]ethyl}-2-aza-8-azoniaspiro[4.5]dec-3-ene] yielded a 50% inhibitory concentration (IC50) of 0.04 µM.
As to `CC1=C(N2CCC3(CCN(CCc4cnc(-n5cnnn5)cc4CO)CC3)C2=O)COC1=O` [Example 250, 8-{2-[4-(hydroxymethyl)-6-(1H-tetrazol-1-yl)pyridin-3-yl]ethyl}-2-(4-methyl-5-oxo-2,5-dihydrofuran-3-yl)-1-oxo-2-aza-8-azoniaspiro[4.5]decane], the IC50 amounted to 0.08 µM.
In the case of `CC1=C(N2C=CC3(CCN(CCc4cnc(-n5cnnn5)cn4)CC3)C2=O)COC1=O` [Example 251, 2-(4-methyl-5-oxo-2,5-dihydrofuran-3-yl)-1-oxo-8-{2-[5-(1H-tetrazol-1-yl)pyrazin-2-yl]ethyl}-2-aza-8-azoniaspiro[4.5]dec-3-ene] it was 0.05 µM.
In turn, `CC1=C(N2CCC3(CCN(CCc4ncc(-n5cnnn5)nc4C)CC3)C2=O)COC1=O` [Example 252, 2-(4-methyl-5-oxo-2,5-dihydrofuran-3-yl)-8-{2-[3-methyl-5-(1H-tetrazol-1-yl)pyrazin-2-yl]ethyl}-2,8-diazaspiro[4.5]decan-1-one] had an IC50 of 0.01 µM.
In the case of `CC1=CN(C2=C(C)C(=O)OC2)C(=O)C12CCN(CCc1ccc(-n3cnnn3)nn1)CC2` [Example 253, 4-methyl-2-(4-methyl-5-oxo-2,5-dihydrofuran-3-yl)-1-oxo-8-{2-[6-(1H-tetrazol-1-yl)pyridazin-3-yl]ethyl}-2-aza-8-azoniaspiro[4.5]dec-3-ene] it was 0.02 µM; in that of `COC(=O)c1cc(-n2cnnn2)ncc1CCN1CCC2(CC1)CCN(C1=C(C)C(=O)OC1)C2=O` [Example 254, methyl 5-(2-(2-(4-methyl-5-oxo-2,5-dihydrofuran-3-yl)-1-oxo-2,8-diazaspiro[4.5]decan-8-yl)ethyl)-2-(1H-tetrazol-1-yl)isonicotinate], 0.03 µM; in that of `CC1=CC2(CCN(CCc3ccc(-n4cnnn4)nn3)CC2)C(=O)N1C1=CC(=O)OC1` [Example 255, 3-methyl-2-(5-oxo-2,5-dihydrofuran-3-yl)-8-{2-[6-(1H-tetrazol-1-yl)pyridazin-3-yl]ethyl}-2,8-diazaspiro[4.5]dec-3-en-1-one], 0.02 µM.
The result for `CC1=CN(C2=C(C)C(=O)OC2)C(=O)C12CCN(CCc1nnc(-n3cnnn3)cc1C)CC2` [Example 256, 4-methyl-2-(4-methyl-5-oxo-2,5-dihydrofuran-3-yl)-8-{2-[4-methyl-6-(1H-tetrazol-1-yl)pyridazin-3-yl]ethyl}-1-oxo-2-aza-8-azoniaspiro[4.5]dec-3-ene] reads 0.03 µM; that for `Cc1nc(-n2cnnn2)cnc1CCN1CCC2(CC1)C[C@H](C)N(C1=CC(=O)OC1)C2=O` [Example 261, (3S)-3-methyl-8-{2-[3-methyl-5-(1H-tetrazol-1-yl)pyrazin-2-yl]ethyl}-2-(5-oxo-2,5-dihydrofuran-3-yl)-2,8-diazaspiro[4.5]decan-1-one], 0.003 µM.
For `Cc1cc(-n2cnnn2)nnc1CCN1CCC2(CC1)C[C@H](C)N(C1=CC(=O)OC1)C2=O` [Example 262, (3S)-3-methyl-8-{2-[4-methyl-6-(1H-tetrazol-1-yl)pyridazin-3-yl]ethyl}-2-(5-oxo-2,5-dihydrofuran-3-yl)-2,8-diazaspiro[4.5]decan-1-one], the concentration for half-maximal inhibition (IC50) is 0.004 µM.
The result for `CC1=C(N2C=CC3(CCN(CCc4ncc(-n5cnnn5)nc4C)CC3)C2=O)COC1=O` [Example 263, 2-(4-methyl-5-oxo-2,5-dihydrofuran-3-yl)-8-{2-[3-methyl-5-(1H-tetrazol-1-yl)pyrazin-2-yl]ethyl}-1-oxo-2-aza-8-azoniaspiro[4.5]dec-3-ene] reads 0.01 µM; that for `C[C@H]1CC2(CCN(CCc3ccc(-n4cnnn4)nn3)CC2)C(=O)N1C1=CC(=O)OC1` [Example 264, (3S)-3-methyl-2-(5-oxo-2,5-dihydrofuran-3-yl)-8-{2-[6-(1H-tetrazol-1-yl)pyridazin-3-yl]ethyl}-2,8-diazaspiro[4.5]decan-1-one], 0.003 µM.
In the case of `Cc1nc(-n2cnnn2)cnc1CCN1CCC2(CC1)CCN(C1=CC(=O)OC1)C2=O` [Example 269, 8-{2-[3-methyl-5-(1H-tetrazol-1-yl)pyrazin-2-yl]ethyl}-2-(5-oxo-2,5-dihydrofuran-3-yl)-2,8-diazaspiro[4.5]decan-1-one] it was 0.02 µM; in that of `C[C@H]1CC2(CCN(CCc3ncc(-n4cnnn4)nc3C3CC3)CC2)C(=O)N1C1=CC(=O)OC1` [Example 270, (S)-8-(2-(3-cyclopropyl-5-(1H-tetrazol-1-yl)pyrazin-2-yl)ethyl)-3-methyl-2-(5-oxo-2,5-dihydrofuran-3-yl)-2,8-diazaspiro[4.5]decan-1-one], 0.01 µM.
The result for `CCc1nc(-n2cnnn2)cnc1CCN1CCC2(CC1)C[C@H](C)N(C1=CC(=O)OC1)C2=O` [Example 271, (S)-8-(2-(3-ethyl-5-(1H-tetrazol-1-yl)pyrazin-2-yl)ethyl)-3-methyl-2-(5-oxo-2,5-dihydrofuran-3-yl)-2,8-diazaspiro[4.5]decan-1-one] reads 0.005 µM; that for `CC1=C(N2CCC3(CCN(C[C@H](F)c4cnc(-n5cnnn5)cn4)CC3)C2=O)COC1=O` [Example 276, (S)-8-(2-(5-(1H-Tetrazol-1-yl)pyrazin-2-yl)-2-fluoroethyl)-2-(4-methyl-5-oxo-2,5-dihydrofuran-3-yl)-2,8-diazaspiro[4.5]decan-1-one], 0.05 µM.
In turn, `CC1=C(N2CCC3(CCN(C[C@@H](F)c4cnc(-n5cnnn5)cn4)CC3)C2=O)COC1=O` [Example 277, 8-{(2R)-2-fluoro-2-[5-(1H-tetrazol-1-yl)pyrazin-2-yl]ethyl}-2-(4-methyl-5-oxo-2,5-dihydrofuran-3-yl)-1-oxo-2-aza-8-azoniaspiro[4.5]decane] registered an IC50 of 0.08 µM.
In the case of `CC1=C(N2CCC3(CCN(C[C@H](F)c4ccc(-n5cnnn5)nn4)CC3)C2=O)COC1=O` [Example 278, 8-{(2S)-2-fluoro-2-[6-(1H-tetrazol-1-yl)pyridazin-3-yl]ethyl}-2-(4-methyl-5-oxo-2,5-dihydrofuran-3-yl)-1-oxo-2-aza-8-azoniaspiro[4.5]decane] it was 0.03 µM; in that of `CC1=C(N2CCC3(CCN(C[C@H](F)c4ccc(-n5cnnn5)cn4)CC3)C2=O)COC1=O` [Example 279, 8-{(2S)-2-fluoro-2-[5-(1H-tetrazol-1-yl)pyridin-2-yl]ethyl}-2-(4-methyl-5-oxo-2,5-dihydrofuran-3-yl)-1-oxo-2-aza-8-azoniaspiro[4.5]decane], 0.02 µM.
`CC1=C(N2CCC3(CCN(C[C@@H](F)c4ccc(-n5cnnn5)cn4)CC3)C2=O)COC1=O` [Example 280, 8-{(2R)-2-fluoro-2-[5-(1H-tetrazol-1-yl)pyridin-2-yl]ethyl}-2-(4-methyl-5-oxo-2,5-dihydrofuran-3-yl)-1-oxo-2-aza-8-azoniaspiro[4.5]decane] had an IC50 of 0.03 µM.
In the case of `CO[C@H](CN1CCC2(CC1)CCN(C1=C(C)C(=O)OC1)C2=O)c1cnc(-n2cnnn2)cn1` [Example 281, 8-{(2R)-2-methoxy-2-[5-(1H-tetrazol-1-yl)pyrazin-2-yl]ethyl}-2-(4-methyl-5-oxo-2,5-dihydrofuran-3-yl)-1-oxo-2-aza-8-azoniaspiro[4.5]decane] it was 0.14 µM.
The result for `CO[C@@H](CN1CCC2(CC1)CCN(C1=C(C)C(=O)OC1)C2=O)c1ccc(-n2cnnn2)cn1` [Example 282, 8-{(2S)-2-methoxy-2-[5-(1H-tetrazol-1-yl)pyridin-2-yl]ethyl}-2-(4-methyl-5-oxo-2,5-dihydrofuran-3-yl)-1-oxo-2-aza-8-azoniaspiro[4.5]decane] reads 0.07 µM.
In the case of `CO[C@@H](CN1CCC2(CC1)CCN(C1=C(C)C(=O)OC1)C2=O)c1cnc(-n2cnnn2)cn1` [Example 283] it was 0.06 µM; in that of `CC1=C(N2CCC3(CCN(C[C@H](OC(C)C)c4ccc(-n5cnnn5)nc4)CC3)C2=O)COC1=O` [Example 285, 8-{(2R)-2-(1-methylethoxy)-2-[6-(1H-tetrazol-1-yl)pyridin-3-yl]ethyl}-2-(4-methyl-5-oxo-2,5-dihydrofuran-3-yl)-1-oxo-2-aza-8-azoniaspiro[4.5]decane], 0.05 µM; in that of `CO[C@H](CN1CCC2(CC1)C[C@@H](C)N(C1=C(C)C(=O)OC1)C2=O)c1ccc(-n2cnnn2)nc1` [Example 287, (3R)-8-{(2S)-2-methoxy-2-[6-(1H-tetrazol-1-yl)pyridin-3-yl]ethyl}-3-methyl-2-(4-methyl-5-oxo-2,5-dihydrofuran-3-yl)-1-oxo-2-aza-8-azoniaspiro[4.5]decane], 0.1 µM.
Compound `CO[C@@H](CN1C2CCC1CC1(CCN(C3=C(C)C(=O)OC3)C1=O)C2)c1ccc(-n2cnnn2)nc1` (stereo partly drawn) [Example 288, (1R,3R,5S)-S-((R)-2-(6-(1H-tetrazol-1-yl)pyridin-3-yl)-2-methoxyethyl)-1′-(4-methyl-5-oxo-2,5-dihydrofuran-3-yl)-8-azaspiro[bicyclo[3.2.1]octane-3,3′-pyrrolidin]-2′-one] came in with a half-inhibitory concentration (IC50) of 0.03 µM.
The result for `CO[C@@H](CN1CCC2(CC1)CCN(C1=C(C)C(=O)OC1)C2=O)c1ccc(-n2cnnn2)nc1` [Example 289, (R)-8-(2-(6-(1H-tetrazol-1-yl)pyridin-3-yl)-2-methoxyethyl)-2-(4-methyl-5-oxo-2,5-dihydrofuran-3-yl)-2,8-diazaspiro[4.5]decan-1-one] reads 0.02 µM.

The record behind these values is patent US9765074B2, “Inhibitors of the renal outer medullary potassium channel” (Merck Sharp & Dohme Corp., priority 2013, dated 2017).
